Measurements as given in patent US10729157B2, “Methods for regulating weight and size of animals” (Oragenics, Inc., priority 2004, dated 2020).
Where two headings read alike, the source gives them in different places.

Tests used:
[1] = Excerpt: Rats were randomly divided, caged separately, and fed water ad libitum and diet TD 80406 diet (Harlan Teklad, Madison, Wis.). The TD 80406 diet has about 1-2% glycine present in the lactalbumin component and is considered a non-supplemented diet.
Adult (180 day old) male Fisher rats were randomly assigned in treatment groups of 10 rats in each group to diets comprising 5% or 20% glycine in their feed or a non-supplemented diet. Animal and food weight measurements were obtained on the indicated day of the study. The analyst undertaking the weight measurement was blinded relative to the diet of the animal for which the observation was being recorded. The bars represent±1 standard error of the weights of the rats in each group on the indicated observation day.
(§1) The identical experiment was performed with female adult (180 day old) Fisher rats.

[2] = system: abdominal fat
Method: Five rats from each treatment group were chosen at random and euthanized on day 30 of the study. Measurements of the abdominal fat content of each rat were obtained at necropsy (FIG. 2). The analyst undertaking the measurement was blinded relative to the treatment group of the animal for which the observation was being recorded. Data was analyzed using a One-Way Analysis of Variance and subjected to post-hoc analysis using Dunnett's Multiple Comparison Test.
as §1

[3] = rats on a high glycine diet
Excerpt: Blood samples were withdrawn from the tail vein of the rats under study and sent to Charles River Laboratories for Mutli-Analyte Profile testing. […] Am J Physiol Regul Integr Comp Physiol, 2004. […] Nahrung, 1980. 24(7):663-71; Sugiyama et al., Dietary sulfur-containing amino acids and glycine as determinant factors in plasma cholesterol regulation in growing rats. J Nutr Sci Vitaminol (Tokyo), 1985. […] Pol J Pharmacol, 2003. […] Nutrition Research, 1999. 19(12):1777-1789; Yoshida et al., Effects of addition of arginine, cystine, and glycine to the bovine milk-simulated amino acid mixture on the level of plasma and liver cholesterol in rats. J Nutr Sci Vitaminol (Tokyo), 1988. 34(6):567-76; Olson et al., Effect of amino acid diets upon serum lipids in man. Am J Clin Nutr, 1970. […] Vopr Med Khim, 1984. 30(2):78-80; Yagasaki et al., Effects of dietary methionine, cystine, and glycine on endogenous hypercholesterolemia in hepatoma-bearing rats. J Nutr Sci Vitaminol (Tokyo), 1986. […] J Biol Chem, 1990. 265(10):5910-6.

[4] = adult male ZDF rats, 20% glycine diet vs non-supplemented, day 15 through day 36
Excerpt: (§2) Adult male Zucker diabetic fatty (ZDF) rats were randomly assigned in treatment groups of 3 rats in each group to diets comprising 20% glycine in their feed or a non-supplemented diet. ZDF rats are obese, hyperlipidemic, and insulin resistant. Weight measurements were obtained on the indicated day of the study. The analyst undertaking the weight measurement was blinded relative to the diet of the animal for which the observation was being recorded. The bars represent±1 standard error of the weights of the rats in each group on the indicated observation day. Data was analyzed using a One-Way Analysis of Variance and subjected to post-hoc analysis using Dunnett's Multiple Comparison Test. […] Measurements of the abdominal fat content of each rat were obtained at necropsy (FIG. 7).

[5] = system: abdominal fat; settings: ZDF rats, 20% glycine diet, at necropsy
Excerpt: as §2

[6] = remark: listed apart in the source
Excerpt: Adult female Sprague-Dawley rats were randomly assigned in treatment groups of 3 rats in each group to diets comprising 5, 10, 15, or 20% glycine in their feed or a non-supplemented diet. Weight measurements were obtained on the indicated day of the study. The analyst undertaking the weight measurement was blinded relative to the diet of the animal for which the observation was being recorded. The bars represent±1 standard error of the weights of the rats in each group on the indicated observation day. […] Data was analyzed using a One-Way Analysis of Variance and subjected to post-hoc analysis using Dunnett's Multiple Comparison Test.

[7] = system: abdominal fat; settings: adult female Sprague-Dawley rats, glycine from 5% to 20% in diet vs non-supplemented, day 30
Excerpt: Adult female Sprague-Dawley rats were randomly assigned in treatment groups of 3 rats in each group to diets comprising 5, 10, 15, or 20% glycine in their feed or a non-supplemented diet. The rats in each treatment group were euthanized on day 30 of the study. Measurements of the abdominal fat content of each rat were obtained at necropsy. The analyst undertaking the measurement was blinded relative to the treatment group of the animal for which the observation was being recorded. Data was analyzed using a One-Way Analysis of Variance and subjected to post-hoc analysis using Dunnett's Multiple Comparison Test.

[8] = system: BAD
Method: Adult male Sprague-Dawley rats were randomly assigned in treatment groups of 3 rats in each group to diets comprising 5% or 20% of glycine in their feed or a non-supplemented diet. On day 20 of the study the animals were euthanized and the adipose tissue obtained at necropsy. Total proteins were extracted from the adipose tissue.
Assay of the tissue extracts for the ability to phosphorylate BAD at serine position 136 was performed as follows: One mg of tissue extract was added to BAD agarose (Upstate, Waltham, Mass.). The reaction volume was adjusted to 1 ml using RIPA buffer (with anti-phosphatases and anti-proteases) (Tris-HCl [pH 7.4] 50 mM; NP-40 1%; Na deoxycholate 0.25%; NaCl 150 mM; EDTA 1 mM; PMSF 1 mM; Protease Arrest 100 ul; sodium orthovanadate 1 mM; sodium fluoride 1 mM) and incubated for 0.5 hr at 30° C. The agarose beads were collected by centrifugation (5 sec at 12,000× g). The supernatant was removed and the beads washed 3× with ice cold TBS. The BAD-agarose was resuspended in 40 μl of sample buffer, boiled for 5 min, and centrifuged (5 min at 12,000× g). Seven microliters of sample were electrophoresed on a 15% gel (Tris-Glycine). The protein was transferred by western blotting to a nitrocellulose membrane and blocked with 5% NFM in TTBS at 4° C. with shaking. The membrane was washed with 2% NFM in TTBS. Each lane was blotted with rabbit anti-phospho-BAD 136 antibody at (1:1000 in 2% NFM/TTBS) for 2 hrs at room temperature. The blots were washed three times for 5 min with TTBS. The blots were incubated with goat anti-Rabbit-HRP (1:5000 in 2% NFM/TTBS). The blots were washed 3× for 5 min with TTBS and 2× 5 min with TBS. Visualization of phosphorylated BAD was accomplished with a chemiluminesence substrate (Pierce Super-Signal Substrate™).

[9] = for size and weight after switch to diet without glycine supplementation: 4 weeks glycine diet then 10% to 0%, within one month; for growth (length) / weight gain: glycine added to diet
Excerpt: Animals treated for 4 weeks with diet supplemented with glycine were switched to diet containing no glycine supplementation (FIGS. 18 and 19, 10% to 0%). […] Animals treated for 4 weeks with diet supplemented with glycine were switched to diet containing no glycine supplementation (FIGS. 20 and 21, 10% to 0%).

Remark: listed apart in the source
[10] = system: 3T3-L1 cells differentiated into adipocytes
[11] = Glycine added to the diet of laboratory animals (general statement)
[12] = adult female Fisher rats compared with males

NCC(=O)O [glycine]
effect on weight loss and abdominal fat content [1, 12]: somewhat more pronounced in the females than in the males
weight ([1]; adult male Fisher rats, 20% glycine diet vs 5% glycine or non-supplemented diet, day 14-30): statistically lighter
weight after return to non-supplemented diet ([1]; adult male Fisher rats, 20% glycine group returned to non-supplemented diet on day 30, vs control after day 32): no statistical difference
weight at end of Recovery Phase ([1]; treated adult female Fisher rats vs control): did not rebound to the level of the control animals
reduction in abdominal fat [2, 12]: greater than that observed for the male
abdominal fat content ([2]; adult male Fisher rats, 20% glycine diet vs 5% glycine or non-supplemented diet, day 30): statistically significant less abdominal fat
adiponectin levels [3]: increase in a manner trending towards significance
leptin levels [3]: Decrease in leptin levels, trending toward significance
serum HDL level [3]: statistically significant (p≤0.05) reduction
serum cholesterol level [3]: statistically significant (p≤0.05) reduction
serum triglyceride level [3]: statistically significant (p≤0.05) reduction
weight [4]: statistically significant decrease in weight
abdominal fat content [5]: statistically significant (p≤0.05) less abdominal fat
weight ([6]; adult female Sprague-Dawley rats, 20% glycine diet vs non-supplemented, day 15 through day 36): statistically significant decrease in weight
weight loss ([6]; female Sprague-Dawley rats, high glycine in the diet): rapid significant weight loss
abdominal fat content [7]: statistically significant less abdominal fat
ability of WAT protein extracts to phosphorylate BAD at serine position 136 ([8]; WAT of treated animals, preliminary data): did not have the ability to phosphorylate BAD
phosphorylation state of BAD at tyrosine 136 ([8]; liver tissue extracts): no such decrease
phosphorylation state of BAD at tyrosine 136 ([8]; muscle extracts): no such decrease
loss of BAT tissue ([8]; preliminary experiments, glycine-fed rats): no significant loss
phosphorylation of BAD at tyrosine 136 ([8]; white adipose tissue (WAT), adult male rats, 5% or 20% glycine diet, day 20): dose dependent decrease
size and weight after switch to diet without glycine supplementation ([9]; immature female rats): same size and weight as the control animals
growth (length) ([9]; immature female rats): dose-dependent reduction
weight gain ([9]; immature female rats): dose-dependent reduction
size and weight after switch to diet without glycine supplementation ([9]; immature male rats): same size and weight as the control animals
growth (length) ([9]; immature male rats): dose-dependent reduction
weight gain ([9]; immature male rats): dose-dependent reduction
gross findings at necropsy (15% glycine and 85% TD80406 diet for 6 weeks, rats 24 days old at start): No gross lesions or treatment related abnormalities other than weight
blood chemistry and complete blood counts (15% glycine diet for 6 weeks vs control diet): No differences
histopathological examination of tissues (one animal fed high glycine diet, brain, lung, liver, adrenal gland, kidneys, urinary bladder, heart, stomach, intestines): no microscopic changes from normal histology
apoptosis by TUNEL staining ([10]; glycine in media equivalent to 2× the normal circulating levels in the blood, preliminary experiments): positive TUNEL staining
TUNEL staining ([10]; high concentrations of glycine in the medium vs non-treated cells): increased staining for TUNEL
weight loss ([11]; dietary glycine at high levels (20% by weight)): significant weight loss
weight ([11]; glycine added to the diet of laboratory animals, rodent strains and dogs): dose-dependent loss in weight
side-effects ([11]; optimal and super-optimal doses, prolonged administration): no deleterious side-effects
